The source made the active and inactive calls.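 Rule for the calls: active = plate Z score at or below -3, or inhibition of at least 30% at 20 µM; inactive = the rest.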
Assay: EGFP reporter destabilization counter-screen – F442A EGFP cells, fluorescence, counter-screen for p/CIP destabilizer project, dose response (AID 2005);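 note: cells express EGFP alone from a CMV promoter as a counter screen for p/CIP-EGFP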
Details: F442A EGFP cells, EGFP fluorescence, 16 h, stronger effect = higher value

CC(=O)Nc1ccc(NC2=C(Cl)C(=O)c3ccccc3C2=O)cc1
inhibition (EGFP decrease, at 10 µM): 3%
inhibition (at 20 µM): 0.6% (inactive)

C[C@@H](C(=O)N1CCN(C(=O)OC(C)(C)C)CC1)n1cc(-c2cn([C@@H](C)C(=O)N3CCN(C(=O)OC(C)(C)C)CC3)nn2)nn1
inhibition (EGFP decrease, at 10 µM): 38.2%
inhibition (at 20 µM): 25.3% (inactive)

O=C(NC(=S)NCc1ccccc1)c1ccc(Br)o1
inhibition (EGFP decrease, at 10 µM): 23.8%
inhibition (at 20 µM): 19.8% (inactive)

Cc1nc(-c2ccc(C(=O)Nc3cccc(F)c3)cc2)cs1
inhibition (EGFP decrease, at 10 µM): 30.7%
inhibition (at 20 µM): 32.8%

N/C(Cc1ccc([N+](=O)[O-])cc1)=N\OC(=O)COc1ccc2ccccc2c1
inhibition (EGFP decrease, at 10 µM): 7%
inhibition (at 20 µM): -7.4% (inactive)

O=S(=O)(NCC1CCCO1)c1cccc(C(F)(F)F)c1 (stereo not drawn)
inhibition (EGFP decrease, at 10 µM): 7.7%
inhibition (at 20 µM): 11.7% (inactive)

O=CN1CCC(=O)N(Cc2ccccc2)c2ccccc21
inhibition (EGFP decrease, at 10 µM): 33.4%
inhibition (at 20 µM): 23.1% (inactive)

CC(C)(C)NC(=O)c1ccc2c(c1)N(CC(=O)N1CCN(c3ccc(F)cc3)CC1)C(=O)C(C)(C)O2
inhibition (EGFP decrease, at 10 µM): 8.7%
inhibition (at 20 µM): 12.7% (inactive)

CCOC(=O)CCc1c(C)c2ccc(OCC(=O)N(CC)CC)c(C)c2oc1=O
inhibition (EGFP decrease, at 10 µM): 19.9%
inhibition (at 20 µM): 8.8% (inactive)

COC(=O)c1c(NC(=O)c2ccc(C)cc2)sc(Cc2ccccc2)c1C
inhibition (EGFP decrease, at 10 µM): 29.9%
inhibition (at 20 µM): -2.4% (inactive)

COc1ccc(S(=O)(=O)N2CCOC2CNC(=O)C(=O)NCc2ccncc2)cc1 (stereo not drawn)
inhibition (EGFP decrease, at 10 µM): -30.4%
inhibition (at 20 µM): 8.6% (inactive)

CCC(C(=O)NC1CCCCCC1)n1nc(C)n2c(cc3occc32)c1=O (stereo not drawn)
inhibition (EGFP decrease, at 10 µM): 2.6%
inhibition (at 20 µM): 5.5% (inactive)

CCN1CCN(Cc2ccc(NC(=O)c3cc(NC(=O)C4=NN(c5ccccc5)C(=O)C4)cc(OC)c3)cc2C(F)(F)F)CC1
inhibition (EGFP decrease, at 10 µM): 37.6%
inhibition (at 20 µM): 24.2% (inactive)

Cc1nn(C)c(Cl)c1S(=O)(=O)N[C@@H](c1ccccc1)[C@]1(C)C[C@H]1[C@@H](C)C(=O)Nc1ccc2ccccc2c1
inhibition (EGFP decrease, at 10 µM): 34.6%
inhibition (at 20 µM): 11.3% (inactive)

CC(=O)N/C(=C/c1ccc2c(c1)OCO2)C(=O)NCCCO
inhibition (EGFP decrease, at 10 µM): 1.2%
inhibition (at 20 µM): 2% (inactive)

O=C(NCc1ccncc1)c1cc(C(=O)C2CCCCC2)c[nH]1
inhibition (EGFP decrease, at 10 µM): -25%
inhibition (at 20 µM): 31.5%

CCCc1nnc(NC(=O)C2CCN(C(=O)C3CC(=O)N(c4ccc(C)cc4)C3)CC2)s1 (stereo not drawn)
inhibition (EGFP decrease, at 10 µM): 13.9%
inhibition (at 20 µM): 14.4% (inactive)

O=C1NC(Cc2c[nH]c3ccccc23)C(=O)N1CCOc1ccc(F)cc1 (stereo not drawn)
inhibition (EGFP decrease, at 10 µM): 11.9%
inhibition (at 20 µM): 9.1% (inactive)

COC(=O)c1ccc(NC(=O)CCCCCn2nnc3ccccc3c2=O)cc1
inhibition (EGFP decrease, at 10 µM): 5.4%
inhibition (at 20 µM): -4% (inactive)

Fc1ccc(CNCCc2ccccc2)cc1
inhibition (EGFP decrease, at 10 µM): 21.5%
inhibition (at 20 µM): -9.1% (inactive)

O=C(COC(=O)COc1ccccc1)NCc1ccccc1
inhibition (EGFP decrease, at 10 µM): 16.3%
inhibition (at 20 µM): 11.3% (inactive)

Cc1ccc(SCC(=O)N(C)C2CCS(=O)(=O)C2)cc1 (stereo not drawn)
inhibition (EGFP decrease, at 10 µM): 17.7%
inhibition (at 20 µM): 28.3% (inactive)

O=S(=O)(NCC1CCCN(Cc2ccccc2)C1)c1cccc2cccnc12 (stereo not drawn)
inhibition (EGFP decrease, at 10 µM): 21.3%
inhibition (at 20 µM): 19.6% (inactive)

Cc1ccc(Cn2c(SCC(C)C)nc3c2c(=O)[nH]c(=O)n3C)cc1
inhibition (EGFP decrease, at 10 µM): 6.3%
inhibition (at 20 µM): 20.7% (inactive)

CCC(=O)Nc1ccccc1Oc1ccccc1
inhibition (EGFP decrease, at 10 µM): 12.2%
inhibition (at 20 µM): 19.7% (inactive)

CN(c1ccc(C(=O)Nc2ccccn2)cc1)S(=O)(=O)c1ccccc1
inhibition (EGFP decrease, at 10 µM): 11.8%
inhibition (at 20 µM): 9% (inactive)

C(=N\NC1=Nc2cccc3cccc1c23)/c1ccccn1
inhibition (EGFP decrease, at 10 µM): 10.2%
inhibition (at 20 µM): 12% (inactive)

O=C(c1ccc(F)cc1)C1CCN(C(=O)c2c(F)cccc2F)CC1
inhibition (EGFP decrease, at 10 µM): 12.9%
inhibition (at 20 µM): 13.5% (inactive)

Cc1ccsc1C(=O)OCC(=O)N1CCc2ccccc2C1
inhibition (EGFP decrease, at 10 µM): 5%
inhibition (at 20 µM): 13.3% (inactive)

Cc1cccc(N(CC(=O)NCCc2ccccc2)C(=O)c2csnn2)c1
inhibition (EGFP decrease, at 10 µM): 4.8%
inhibition (at 20 µM): 17.2% (inactive)

CCc1ccc(NC(=O)CCn2c(=O)oc3ccccc32)cc1
inhibition (EGFP decrease, at 10 µM): 11.9%
inhibition (at 20 µM): 3.3% (inactive)

CCOC(=O)N1CCC(NC(=O)Cn2nc(-c3ccccc3)ccc2=O)CC1
inhibition (EGFP decrease, at 10 µM): 1.1%
inhibition (at 20 µM): 24.5% (inactive)

COC(=O)[C@@H](Cc1c[nH]c2ccccc12)NC(=O)C1CCCN(S(=O)(=O)c2ccc(C)cc2)C1 (stereo partly drawn)
inhibition (EGFP decrease, at 10 µM): -7.3%
inhibition (at 20 µM): 19.7% (inactive)

CCCCN(CC)C(=O)c1cc2cc3ccc(OC)cc3nc2o1
inhibition (EGFP decrease, at 10 µM): 23.8%
inhibition (at 20 µM): 25.6% (inactive)

CC(NC(=O)CN(C)CC(=O)Nc1ccc(F)c(F)c1F)c1ccccc1 (stereo not drawn)
inhibition (EGFP decrease, at 10 µM): 8%
inhibition (at 20 µM): -8.6% (inactive)

COc1ccccc1NC(=S)NNC(=O)c1ccc(Cl)cc1Cl
inhibition (EGFP decrease, at 10 µM): -23.9%
inhibition (at 20 µM): 2% (inactive)

Cc1ccccc1Cn1c(C)nc2ccccc21
inhibition (EGFP decrease, at 10 µM): 29.8%
inhibition (at 20 µM): 39%

O=c1c2ccccc2nc(-c2ccccc2)n1-c1ccncc1
inhibition (EGFP decrease, at 10 µM): -29.4%
inhibition (at 20 µM): 24.7% (inactive)

CC(Oc1ccc(Cl)cc1)C(=O)NCC1CCCO1 (stereo not drawn)
inhibition (EGFP decrease, at 10 µM): 20.8%
inhibition (at 20 µM): -7.4% (inactive)

— PubChem BioAssay AID2005 (Sanford-Burnham Center for Chemical Genomics, 2009)
